In patent EP0214743B1, “Use of quinoline derivatives in the manufacture of medicaments for the treatment of cerebrovascular disorders and cerebral senility” (BEECHAM GROUP PLC, priority 1985, dated 1987):
Marks after values point to notes of the source that are not given here.

Legend:
[1] = tested on: Triethyltin-induced cerebral oedema; assay: Triethyltin-induced cerebral oedema in the rat; assay type: in vivo; conditions: twice daily for 5 days, Wistar rats intoxicated with triethyltin chloride 2 mg/kg
Procedure: 1. Triethyltin-induced cerebral oedema in the rat.
The cerebral oedema is induced by oral administrations repeated for 5 consecutive days - one administration per day - of triethyltin chloride at a dose of 2 mg/kg. The test compound is also administered orally twice daily as aqueous solution or suspension (1ml/100g body-weight); these administrations are given during the 5 days of intoxication with tin. Three groups of 10 male specific pathogen-free (SPF) Wistar rats of 280 ± 10g body-weight are used: • 1 control group • 1 group intoxicated with triethyltin • 1 group intoxicated with triethyltin and treated with the studied compound. The rats are killed on the evening of the fifth day; the brain is removed, weighed fresh and after desiccation to constant weight and the water content of each brain is calculated: [H₂O] = fresh weight - dry weight. [formula] The following are then calculated: • the mean water content (M ± Sm%) of each group; • the protection index P due to the administered compound: [formula] The significance is evaluated by the Mann-Whitney test.

rat cortex = assay: Effect of test compound on oxygen tension (pO₂) of rat cortex; assay type: in vivo; conditions: for Increase in pO₂ (torr): normoxic cortex, normal anaesthetized rats; for Ischaemic Cortex Increase in pO₂ (torr) (mean ± sem): both carotid arteries ligated 3 weeks previously, N=5
Procedure: 2. Effect of test compound on oxygen tension (pO₂) of rat cortex.
Male rats (280-350g) were anaesthetized with sodium-thio pentone (100 mg/kg i.p.). The arterial blood pressure was recorded from a femoral artery.
The cranium was opened with a trephine (0.6 mm) above the praecentral cortex. The dura mata was carefully removed and a multiwire oxygen sensitive electrode was placed on the cortex.
The electrode current was continuously recorded.
After a stabilisation period the test compound was administered. The change in the cortical pO₂, produced by compound administration, was calculated for each animal.
These measurements were performed in normal animals and in animals in which both carotid arteries had been ligated 3 weeks previously in order to induce cortical ischaemia.

| Structure (SMILES) | % inhibition of cerebral oedema formation ([1]; 2x12.5 mg/kg p.o.) | % inhibition of cerebral oedema formation ([1]; dosage cell empty in this row, p.o.) | % inhibition of cerebral oedema formation ([1]; 2x1 mg/kg p.o.) | % inhibition of cerebral oedema formation ([1]; 2x2.5 mg/kg p.o.) | Increase in pO₂ (torr) (rat cortex; 0.4 mg/kg i.v., N=3) | Ischaemic Cortex Increase in pO₂ (torr) (mean ± sem) (rat cortex; 0.5 mg/kg i.v.) | Increase in pO₂ (torr) (rat cortex; 0.8 mg/kg i.v., N=2) | Ischaemic Cortex Increase in pO₂ (torr) (mean ± sem) (rat cortex; 1.0 mg/kg i.v.) | effect on pO₂ in the rat normoxic and chronic ischaemic cortex (rat cortex; summary in words of Table 2) |
| --- | --- | --- | --- | --- | --- | --- | --- | --- | --- |
| CC1(C)C=C(N2CCCC2=O)c2cc(Br)ccc2N1 [Compound B, 6-Bromo-2,2-dimethyl-4-(2-oxo-1-pyrrolidinyl)-1,2-dihydroquinoline] | 41.4** % | 100** % |  |  |  |  |  |  |  |
| CC1(C)C=C(N2CCCC2=O)c2cc(C#N)ccc2N1 [Compound C, 6-Cyano-2,2-dimethyl-4-(2-oxo-1-pyrrolidinyl)-1,2-dihydroquinoline] | 100** % |  | 53.3** % |  |  |  |  |  |  |
| CC1(C)Nc2ccc(C#N)cc2[C@@H](N2CCCC2=O)[C@@H]1O (relative stereo) [Compound A, trans-2,2-dimethyl-6-cyano-4-(2-oxo-1-pyrrolidinyl)-1,2,3,4-tetrahydroquinolin-3-ol] |  |  |  | 30* % | 2.1 ± 2.0 torr | 0.9 ± 0.9 torr | 4.1 ± 0.9 torr | 1.9 ± 1.9 torr | increases pO₂ |
